This note sets out measurements from PubChem BioAssay (NCI).

Some test systems named below: RPMI-8226 leukemia; U251 CNS; HOP-62 NSCLC; MCF7 breast; KM12 colon; MALME-3M melanoma; SNB-19 CNS; HT29 colon; K-562 leukemia; HL-60(TB) leukemia; TK-10 renal; RXF 393 renal; SK-OV-3 ovarian; MDA-MB-435; OVCAR-4 ovarian; SK-MEL-5 melanoma; ACHN renal.
Assay in all cases: DTP human tumour cell line panel, 48 h

Each structure is given as a SMILES string.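 96-well plates; 48 h exposure; 5 concentrations. Endpoints by linear interpolation between flanking doses. Not reached: highest tested concentration assigned. The concentration for full growth arrest is given as TGI.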

Take `NS(=O)(=O)c1ccc(N=Nc2ccc(O)c(O)c2)cc1`: the TGI (as a rule, the concentration at which net growth stops) was 39.7 µM with RPMI-8226 leukemia; 72.9 µM in the experiment with U251 CNS; 56.3 µM with HOP-62 NSCLC; greater than 100 µM with MCF7 breast; 32.5 µM with KM12 colon; 54.9 µM in the experiment on MALME-3M melanoma. Further, the TGI with SNB-19 CNS is 84 µM; with HT29 colon, 66.5 µM; with K-562 leukemia it was greater than 100 µM; in the experiment with HL-60(TB) leukemia it was 86.9 µM; in the experiment with TK-10 renal, 93 µM; in the experiment on RXF 393 renal it was 34.8 µM. Further, the TGI in the experiment with SK-OV-3 ovarian was 67 µM; in the experiment on MDA-MB-435 it was 32.2 µM; with OVCAR-4 ovarian it was 29.1 µM; in the experiment with SK-MEL-5 melanoma it was 19.7 µM; in the experiment on ACHN renal, 17 µM.
Take `CC(=O)OCC1OC(N2C(=O)CC(N)=Nc3ccccc32)C(OC(C)=O)C(OC(C)=O)C1OC(C)=O` (centres undefined): the total growth inhibition concentration (TGI) in the experiment on RPMI-8226 leukemia was 49.8 µM; in the experiment on U251 CNS, greater than 100 µM; with HOP-62 NSCLC, greater than 100 µM; in the experiment with MCF7 breast, greater than 100 µM; in the experiment with KM12 colon, greater than 100 µM; in the experiment on MALME-3M melanoma, greater than 100 µM. The TGI with SNB-19 CNS was greater than 100 µM; in the experiment with HT29 colon, greater than 100 µM; in the experiment with K-562 leukemia it was greater than 100 µM; in the experiment with HL-60(TB) leukemia it was greater than 100 µM; in the experiment on TK-10 renal it was greater than 100 µM; in the experiment on RXF 393 renal, 95.1 µM. Further, the TGI was greater than 100 µM in the experiment with SK-OV-3 ovarian; greater than 100 µM with MDA-MB-435; greater than 100 µM in the experiment on OVCAR-4 ovarian; 46.8 µM in the experiment on SK-MEL-5 melanoma; greater than 100 µM with ACHN renal.
Take `Nc1cccc(/C=C/CN2CCN(CCOC(c3ccccc3)c3ccccc3)CC2)c1`: the TGI in the experiment on RPMI-8226 leukemia came out at 15.2 µM; with U251 CNS it was 30.5 µM; in the experiment on HOP-62 NSCLC it was 26.9 µM; with MCF7 breast, 29.4 µM; in the experiment on KM12 colon, 25.4 µM; in the experiment on MALME-3M melanoma, 34.7 µM. Moreover, the TGI in the experiment on SNB-19 CNS stood at 30.7 µM; in the experiment on HT29 colon, 13.1 µM; in the experiment on K-562 leukemia, 16.3 µM; in the experiment with HL-60(TB) leukemia, 22.9 µM; in the experiment on TK-10 renal, 29.6 µM; with RXF 393 renal it was 25.5 µM. For the same compound, the TGI worked out at 27 µM with SK-OV-3 ovarian; 28.1 µM with MDA-MB-435; 27.7 µM in the experiment with OVCAR-4 ovarian; 26.8 µM with SK-MEL-5 melanoma; 32.2 µM with ACHN renal.
As for `Cc1ccccc1C(=O)NC(O)(C(F)(F)F)C(F)(F)F`, the TGI in the experiment on RPMI-8226 leukemia, in the experiment on U251 CNS, in the experiment with HOP-62 NSCLC, in the experiment on MCF7 breast, in the experiment on KM12 colon and with MALME-3M melanoma was greater than 100 µM in each case. Further, the concentration for total growth inhibition (TGI) in the experiment with SNB-19 CNS, with HT29 colon, in the experiment with K-562 leukemia, in the experiment on HL-60(TB) leukemia, in the experiment with TK-10 renal and in the experiment with RXF 393 renal was greater than 100 µM throughout. The TGI in the experiment with SK-OV-3 ovarian, in the experiment on MDA-MB-435, in the experiment with OVCAR-4 ovarian, in the experiment with SK-MEL-5 melanoma and in the experiment with ACHN renal was greater than 100 µM in each case.
For the compound `Nc1nc(Cl)cc(NCC2(CO)CC(c3ccccc3)C2)n1` (centres undefined), the TGI in the experiment with RPMI-8226 leukemia, in the experiment with U251 CNS, in the experiment on HOP-62 NSCLC, in the experiment with MCF7 breast, in the experiment on KM12 colon and in the experiment on MALME-3M melanoma was greater than 100 µM in each case. Further, the TGI in the experiment on SNB-19 CNS is greater than 100 µM; with HT29 colon, greater than 100 µM; in the experiment on K-562 leukemia, greater than 100 µM; in the experiment on HL-60(TB) leukemia, 56.9 µM; in the experiment on TK-10 renal, greater than 100 µM; in the experiment with RXF 393 renal, greater than 100 µM. Moreover, the TGI in the experiment with SK-OV-3 ovarian was greater than 100 µM; with MDA-MB-435 it was greater than 100 µM; in the experiment on OVCAR-4 ovarian, greater than 100 µM; in the experiment on SK-MEL-5 melanoma it was 29.4 µM; in the experiment on ACHN renal, greater than 100 µM.
As to `COC(=O)c1ccc(-n2c(C)nc(=O)c(-c3ccccc3)c2C)cc1`, the TGI in the experiment on RPMI-8226 leukemia, with U251 CNS, in the experiment with HOP-62 NSCLC, in the experiment with MCF7 breast, with KM12 colon and in the experiment on MALME-3M melanoma was greater than 100 µM throughout. Moreover, the TGI in the experiment on SNB-19 CNS, in the experiment with HT29 colon, with K-562 leukemia, in the experiment with HL-60(TB) leukemia, in the experiment with TK-10 renal and in the experiment with RXF 393 renal was greater than 100 µM each time. Further, the TGI with SK-OV-3 ovarian, in the experiment with MDA-MB-435, in the experiment with OVCAR-4 ovarian, in the experiment with SK-MEL-5 melanoma and in the experiment on ACHN renal was greater than 100 µM each time.
Consider `O=C(Nc1sccc1S(=O)(=O)c1ccc(Cl)cc1)c1ccc(Cl)cc1Cl`, for which the TGI in the experiment with RPMI-8226 leukemia, with U251 CNS, in the experiment on HOP-62 NSCLC, in the experiment with MCF7 breast, in the experiment on KM12 colon and in the experiment with MALME-3M melanoma was greater than 100 µM each time. Further, the TGI with SNB-19 CNS, with HT29 colon, in the experiment on K-562 leukemia, in the experiment with HL-60(TB) leukemia, with TK-10 renal and in the experiment on RXF 393 renal was greater than 100 µM in each case. The concentration for total growth inhibition (TGI) in the experiment with SK-OV-3 ovarian, in the experiment with MDA-MB-435, in the experiment on OVCAR-4 ovarian, in the experiment on SK-MEL-5 melanoma and in the experiment on ACHN renal was greater than 100 µM each time.
